# Earlier results as cited in patent publication US20070110715A1, “Treatment of alzheimer's disease” (Ares Trading S.A., priority 2003, published 2007).
# System: Alzheimer's disease risk
# Settings: postmenopausal women using hormone replacement
substance,measurement,value
estrogen,reduction in disease risk (AD),~50%
